Data from ChEMBL document CHEMBL4052749, “Selective inhibitors of human mPGES-1 from structure-based computational screening” (Bioorg Med Chem Lett, 2017).

Key:
[1] = target: T1, Prostaglandin E synthase (Homo sapiens) (UniProt O14684); assay: Inhibition of human mPGES-1 expressed in 293-F cells using PGH2 as substrate preincubated for 15 mins followed by substrate addition measured after 30 secs at 10 uM by enzyme immunoassay
T1 sequence (whole entry): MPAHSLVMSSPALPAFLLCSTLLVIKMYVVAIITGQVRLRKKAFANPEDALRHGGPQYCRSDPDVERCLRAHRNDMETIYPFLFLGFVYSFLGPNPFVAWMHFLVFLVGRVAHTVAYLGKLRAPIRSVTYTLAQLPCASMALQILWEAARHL

[2] = target: T2, Prostaglandin E synthase (Homo sapiens, UniProt O14684); assay: Inhibition of human mPGES-1 expressed in 293-F cells using PGH2 as substrate preincubated for 15 mins followed by substrate addition measured after 30 secs enzyme immunoassay; type: cell-based
T2 sequence (O14684 whole entry): T1 sequence (whole entry)

[3] = test system: COX1/COX2 (ovine COX1, human COX2; the isoform is not stated for the values); assay: Inhibition of ovine COX1/human COX2 assessed as reduction in PGH2 production by measuring PGF2alpha at 100 uM using PG-acetylcholinesterase as tracer by colorimetry; details: ovine COX1/human COX2 enzymes
[4] = Inhibition of ovine COX1/human COX2 assessed as reduction in PGH2 production by measuring PGF2alpha using PG-acetylcholinesterase as tracer by colorimetry

SMILES | inhibition [1] | further results
CCOc1ccc(NC(=S)N2CCC(CCCC3CCN(C(=S)Nc4ccc(OCC)cc4)CC3)CC2)cc1 | 59% | 
S=C(Nc1ccccc1)N1CCC(CCCC2CCN(C(=S)Nc3ccccc3)CC2)CC1 | 53% | 
N#Cc1cccc(C2C(=O)c3c(c(-c4ccccc4)c(-c4ccc(Sc5ccc(-c6c(-c7ccccc7)c7c(c(-c8ccccc8)c6-c6ccccc6)C(=O)N(c6cccc(C#N)c6)C7=O)cc5)cc4)c(-c4ccccc4)c3-c3ccccc3)C2=O)c1 (centres undefined) | 100% | IC50 [2]: 439 nM; inhibition at 100 µM [3]: 9%
CC(=O)N[C@H]1[C@@H](OCc2ccccc2)O[C@H](CO)[C@H](O)[C@@H]1C[C@H](C)C(=O)N[C@@H](C)C(=O)N[C@H](CCC(=O)OCCNc1c2ccccc2nc2cccc([N+](=O)[O-])c12)C(N)=O | 37% | 
CCOC(=O)CC(=O)c1cn(CCCOC(=O)CCCCCCCCC(=O)OCCCn2cc(C(=O)CC(=O)OCC)c(=O)[nH]c2=O)c(=O)[nH]c1=O | 48% | 
O=C(OCCN(CCOC(=O)c1ccccc1)C(=O)N(CCOC(=O)c1ccccc1)CCOC(=O)c1ccccc1)c1ccccc1 | 46% | 
CCCCCCCCCCCCc1ccc(NC2=C(Cl)C(=O)C(Nc3ccc(CCCCCCCCCCCC)cc3)=C(Cl)C2=O)cc1 | 49% | 
C[C@@H]1c2c(cc(OC(=O)c3cccc(S(=O)(=O)F)c3)nc2OC(=O)c2cccc(S(=O)(=O)F)c2)C(=O)N1Cc1ccccc1 | 15% | 
CC/C(=C(/CC)c1ccc(Oc2nc(N3CC3)nc(N3CC3)n2)cc1)c1ccc(Oc2nc(N3CC3)nc(N3CC3)n2)cc1 | 46% | 
CC(C)C(=O)OCC(C)(C)[C@H](OC(=O)COc1ccc(Cl)cc1Cl)C(C)C | 69% | 
CC[n+]1ccc(Nc2ccc(NC(=O)c3ccc(Nc4cc[n+](CC)c5ccc([N+](=O)[O-])cc45)cc3)cc2)cc1 | 70% | 
Cc1noc(NS(=O)(=O)c2ccc(/N=N/c3cc(/N=N/c4ccc(S(=O)(=O)Nc5onc(C)c5C)cc4)c4c(NC(=O)C(Cl)Cl)cccc4c3OC(=O)C(Cl)Cl)cc2)c1C | 43% | 
O=C(Nc1ccccc1)c1cc(S(=O)(=O)Nc2n[nH]c(=O)[nH]2)c(SSc2cc(Cl)c(C(=O)Nc3ccccc3)cc2S(=O)(=O)Nc2n[nH]c(=O)[nH]2)cc1Cl | 59% | 
O=C(C[C@H](c1ccc2c(c1)OCO2)N1CCN([C@H](CC(=O)c2ccc(Br)cc2)c2ccc3c(c2)OCO3)CC1)c1ccc(Br)cc1 | 50% | 
CN(Cc1ccc(Cl)cc1)C(=O)NCCCCCCNC(=O)N(C)Cc1ccc(Cl)cc1 | 64% | 
Cn1c2ccccc2c(=S)c2cc(NC(=O)CCCCC(=O)Nc3ccc4c(c3)c(=S)c3ccccc3n4C)ccc21 | 25% | 
Cc1cc(NS(=O)(=O)c2ccc(/N=N/c3cc(/N=N/c4ccc(S(=O)(=O)Nc5cc(C)nc(C)n5)cc4)c4c(NC(=O)C(Cl)Cl)cccc4c3OC(=O)C(Cl)Cl)cc2)nc(C)n1 | 46% | 
CCCCOc1ccc(NC(=S)Nc2ccc(N(C)C)cc2)cc1 [THIAMBUTOSINE] | 99% | IC50 [2]: 370 nM; inhibition at 100 µM [3]: 1%
Cc1ccc(NC(=S)N2CCC(CCCC3CCN(C(=S)Nc4ccc(C)cc4C)CC3)CC2)c(C)c1 | 49% | 
N#C[C@@H](c1ccccc1)N(CCCCCCN(C(=O)c1ccccc1)[C@@H](C#N)c1ccccc1)C(=O)c1ccccc1 | 40 to 44% | 

SMILES | inhibition [1] | further results
CC(C)(C)c1cc(OCc2nnc3sc(-c4ccc(Cl)cc4)nn23)c(Cl)cc1OCc1nnc2sc(-c3ccc(Cl)cc3)nn12 | 75% | IC50 [2]: 917 nM; inhibition at 100 µM [3]: 15%
CC(=O)O[C@H]1CC[C@]2(C)C3C[C@@]4(C)C(CCC4[C@@H](C)CCCC(C)C)C[C@]3(C#N)n3c(=O)n(-c4ccccc4)c(=O)n3[C@]2(C#N)C1 (some centres undefined) | 99% | IC50 [2]: 276 nM; inhibition at 100 µM [3]: 14%
CC1=NN(C(=O)CC(=O)Nc2ccccc2C)C(=O)[C@@H]1/C=N/c1ccc(S(=O)(=O)c2ccc(/N=N/[C@@H]3C(=O)N(C(=O)CC(=O)Nc4ccccc4C)N=C3C)cc2)cc1 | 36% | 
COc1ccc2nc3cc(Cl)ccc3c(SCC(=O)Nc3ccccc3-c3ccccc3NC(=O)CSc3c4ccc(Cl)cc4nc4ccc(OC)cc34)c2c1 | 57% | 
C[n+]1ccc(Nc2ccc(NC(=O)c3ccc(Nc4cc[n+](C)c5ccc(N)cc45)cc3N)cc2)cc1 | 30% | 
O=c1oc2ccccc2n1P(=O)(N1CCOCC1)N1CCOCC1 | 29% | 
CC(C)(C)OC(=O)N[C@H](Cc1ccc(OCc2ccccc2)cc1)C(=O)N[C@H](CCCCNC(=O)OCc1ccccc1)C(=O)ON1C(=O)CCC1=O | 32% | 
O=[N+]([O-])c1ccc(CSc2ncc(Br)c(SCc3ccc([N+](=O)[O-])cc3)n2)cc1 | 26% | 
O=P1(N(CCCl)CCCl)N(Cc2ccc(Cl)c(Cl)c2)CCCN1Cc1ccc(Cl)c(Cl)c1 | 65% | 
COc1ccc(C(=O)COC(=O)[C@H](C[Se][Se]C[C@H](NC(=O)c2ccc(Br)cc2F)C(=O)OCC(=O)c2ccc(OC)cc2)NC(=O)c2ccc(Br)cc2F)cc1 | 65% | 
O=C(C(=O)c1ccc(/N=C/c2ccc(N(CCCl)CCCl)cc2)cc1)c1ccc(/N=C/c2ccc(N(CCCl)CCCl)cc2)cc1 | 28% | 
O=C(Nc1cccc2c(OC(=O)C(Cl)Cl)c(/C=C/c3ccc(S(=O)(=O)Nc4nccs4)cc3)cc(/N=N/c3ccc(S(=O)(=O)Nc4nccs4)cc3)c12)C(Cl)Cl | 10% | 
COc1ccc(N(Nc2ccc(Br)cc2)c2ccccc2N(Nc2ccc(Br)cc2)c2ccccc2OC)cc1 | 100% | IC50 [2]: 889 nM; IC50 [4]: > 100000 nM; inhibition at 100 µM [3]: 37%
O=C(N/N=C\c1ccccc1/C=N\NC(=O)Nc1ccc(/N=N/c2ccccc2)cc1)Nc1ccc(/N=N/c2ccccc2)cc1 | 71% | 
Cc1ccccc1NC(=O)/C(Cc1nc2ccc(C(=O)c3ccccc3)cc2nc1O)=N\NC(=O)c1ccncc1 | 94% | IC50 [2]: 664 nM; inhibition at 100 µM [3]: 0%
O=C(Nc1ccc(Cl)cc1)Nc1nnc(-c2cccc(-c3nnc(NC(=O)Nc4ccc(Cl)cc4)o3)c2)o1 | 59% | 
Cc1ccc(NC(=O)c2cc(S(=O)(=O)Nc3n[nH]c(=O)[nH]3)c(SSc3cc(Cl)c(C(=O)Nc4ccc(C)cc4)cc3S(=O)(=O)Nc3n[nH]c(=O)[nH]3)cc2Cl)cc1 | 47% | 
O=[N+]([O-])c1ccc(N/N=C(\C=C\c2ccc3c(c2)OCO3)c2cnc(Nc3ccc(Cl)c(Cl)c3)s2)c([N+](=O)[O-])c1 | 98% | IC50 [2]: 284 nM; inhibition at 100 µM [3]: 8%
CCCCCCCCCCCC(=O)Nc1ccc(SSc2ccc(NC(=O)CCCCCCCCCCC)cc2)cc1 | 70% | 
